Patent US12643867B2, “Compositions and uses thereof” (University of Virginia Patent Foundation, priority 2017, dated 2026)

Tests used:
Test in all cases: SILAC LC-MS ATP acyl phosphate probe competition, native kinases in HEK293T
Assay type in all cases: binding
[1] = molecular target: T1, LATS1 (Serine/threonine-protein kinase LATS1) (Homo sapiens, UniProt O95835); conditions: site Lys1; ATP 1 mM; Ketanserin, Ritanserin 100 μM; RF001 1 mM
T1 construct: Native kinases; endogenous in cells; host or cells: HEK293T soluble proteome
T1 sequence (O95835 1-1130): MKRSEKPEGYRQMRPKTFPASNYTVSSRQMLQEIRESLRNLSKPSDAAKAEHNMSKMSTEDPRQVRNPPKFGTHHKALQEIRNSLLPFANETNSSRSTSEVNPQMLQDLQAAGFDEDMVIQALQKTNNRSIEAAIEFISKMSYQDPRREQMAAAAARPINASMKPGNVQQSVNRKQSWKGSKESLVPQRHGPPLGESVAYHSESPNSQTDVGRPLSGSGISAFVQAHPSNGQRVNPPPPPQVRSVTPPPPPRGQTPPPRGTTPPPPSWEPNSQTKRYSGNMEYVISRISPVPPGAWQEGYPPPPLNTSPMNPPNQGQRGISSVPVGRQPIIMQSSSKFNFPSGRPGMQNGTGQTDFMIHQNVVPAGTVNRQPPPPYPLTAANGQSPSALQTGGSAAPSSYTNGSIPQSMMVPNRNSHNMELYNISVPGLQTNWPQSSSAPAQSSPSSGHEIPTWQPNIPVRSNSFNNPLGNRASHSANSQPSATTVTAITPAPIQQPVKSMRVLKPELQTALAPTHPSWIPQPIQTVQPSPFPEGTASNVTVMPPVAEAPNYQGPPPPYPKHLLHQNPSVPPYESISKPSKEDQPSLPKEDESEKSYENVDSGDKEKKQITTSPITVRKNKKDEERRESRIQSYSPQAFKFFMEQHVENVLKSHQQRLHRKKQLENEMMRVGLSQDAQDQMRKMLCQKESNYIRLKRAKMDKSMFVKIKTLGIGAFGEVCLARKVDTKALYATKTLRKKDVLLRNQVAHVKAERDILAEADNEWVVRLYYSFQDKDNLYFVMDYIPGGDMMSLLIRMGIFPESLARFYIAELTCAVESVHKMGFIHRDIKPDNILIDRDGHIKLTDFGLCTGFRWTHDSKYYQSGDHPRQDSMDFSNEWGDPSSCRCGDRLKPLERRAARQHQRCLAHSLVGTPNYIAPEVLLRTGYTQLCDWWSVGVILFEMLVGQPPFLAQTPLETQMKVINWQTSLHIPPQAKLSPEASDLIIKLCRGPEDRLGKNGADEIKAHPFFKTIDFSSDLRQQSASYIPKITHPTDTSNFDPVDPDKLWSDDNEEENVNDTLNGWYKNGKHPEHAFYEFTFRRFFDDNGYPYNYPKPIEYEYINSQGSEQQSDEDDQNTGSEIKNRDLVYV
Procedure: (§1) Proteomes were diluted to 2 mg/ml in kinase buffer. The light and heavy proteomes (0.5 mg, 250 μL total reaction volume) were pre-treated with vehicle or compound, respectively (5 μL, DMSO (light) or 50× stock in DMSO (heavy)), mixed gently, and incubated at 25° C. for 30 min. […] After incubation, matched light and heavy proteomes were transferred and mixed in a 1:1 ratio in a two-dram vial containing 4:1:3 MeOH/CHCl3/H2O (2 mL MeOH, 500 AL CHCl3, 1.5 mL H2O) for extraction of proteins to remove excess probe, quickly vortexed, and centrifuged at 1,400×g for 3 min to pellet protein. Organic and aqueous layers were removed using a Pasteur pipette, and the protein pellet was transferred to a screw-top tube in 600 μL MeOH. A second extraction was performed by adding CHCl3 (150 μL) and H2O (600 μL) to each sample, vortexed, and centrifuged at 1,400×g for 3 min to pellet protein. Organic and aqueous layers were removed by pipetting. MeOH added to pellet (600 μL) and pellets were re-suspended by sonication (3×1 sec pulse, 20% amplitude) for a final extraction. Samples were then centrifuged at 17,000×g for 5 min to pellet protein and MeOH was removed by pipetting. The pellets were re-suspended in 10 M urea/25 mM ammonium bicarbonate ([…]), brought to a final volume of 1 mL with 25 mM ammonium bicarbonate, reduced with 10 mM DTT for 15 min at 65° C. allowed to cool, and then alkylated with 40 mM iodoacetamide for 30 min at 25° C. in the dark. To desalt the samples, each was transferred to a two-dram glass vial, and to the vial 4:1:2 MeOH/CHCl3/H2O (2 mL MeOH, 500 AL CHCl3, 1 mL H2O) was added. The vials were vortexed quickly, spun at 1.400×g for 3 min to pellet protein, and aqueous and organic layers were removed using a Pasteur pipette. The resulting protein pellet was transferred to a screw-top tube in 600 μL MeOH, and then CHCl3 (150 μL) and HO (600 μL) were added to extract protein a second time. The samples were vortexed quickly, centrifuged at 1,400×g to pellet protein, and the aqueous and organic layers were removed by pipetting. Resulting protein pellet was suspended in MeOH (600 μL) via sonication (3×1 sec pulse, 20% amplitude), centrifuged at 17,000×g for 5 min to pellet protein, and MeOH removed by pipetting. Protein pellets were then re-suspended in 25 mM ammonium bicarbonate (500 μL) and digested with 7.5 μg Trypsin/Lys-C(Promega, 15 μL, 0.5 μg/μL) for 3 h at 37° C. Avidin-agarose beads (Thermo Scientific Pierce, 100 AL aliquot per sample) were washed three times by adding 10 mL DPBS, centrifuged at 1,400×g for 1 min, and decanting. This wash step was repeated for a total of 3 times. Digested protein samples were mixed with washed avidin beads (100 μL) and brought to a volume of 5.5 mL with DPBS in a 15 mL conical and rotated for 1 h to enrich samples for the covalent desthiobiotin modification. The beads were washed with 25 mM ammonium bicarbonate (3× with 10 mL, centrifuge at 1,400×g for 3 min, decant) and then H2O (3× with 10 mL, centrifuge at 1,400×g for 3 min, decant). Washed beads were then transferred to a low-bind microfuge tube, centrifuged at 1,400×g for 3 min, allowed to rest for 1 min to settle beads, and then excess H2O was removed carefully using a gel-loading pipette tip. To elute peptides, 100 μL of elution buffer (50% acetonitrile, ACN; 0.1% formic acid) was added to each sample and incubated for 3 min. Beads were spun down at 1.400×g for 3 min, allowed to rest for 1 min to settle beads, and then 75 μL of peptide-containing supernatant was removed carefully using a gel-loading pipette tip and transferred to a new low bind centrifuge tube. This step was repeated two more times with 75 μL of elution buffer and all eluent were collected into the same centrifuge tube (˜225 μL total). Peptides were dried on a speed vacuum, resulting peptide samples acidified in 5% (v/v) formic acid, and stored at −80° C. until analysis.
(§2) The peptide samples were analyzed by liquid chromatography-mass spectrometry. […]

[2] = molecular target: T2, M3K4 (Mitogen-activated protein kinase kinase kinase 4) (Homo sapiens, UniProt Q9Y6R4); conditions: site Lys2; ATP 1 mM; Ketanserin, Ritanserin 100 μM; RF001 1 mM
T2 construct: Native kinases; endogenous in cells; host or cells: HEK293T soluble proteome
T2 sequence (Q9Y6R4 whole entry): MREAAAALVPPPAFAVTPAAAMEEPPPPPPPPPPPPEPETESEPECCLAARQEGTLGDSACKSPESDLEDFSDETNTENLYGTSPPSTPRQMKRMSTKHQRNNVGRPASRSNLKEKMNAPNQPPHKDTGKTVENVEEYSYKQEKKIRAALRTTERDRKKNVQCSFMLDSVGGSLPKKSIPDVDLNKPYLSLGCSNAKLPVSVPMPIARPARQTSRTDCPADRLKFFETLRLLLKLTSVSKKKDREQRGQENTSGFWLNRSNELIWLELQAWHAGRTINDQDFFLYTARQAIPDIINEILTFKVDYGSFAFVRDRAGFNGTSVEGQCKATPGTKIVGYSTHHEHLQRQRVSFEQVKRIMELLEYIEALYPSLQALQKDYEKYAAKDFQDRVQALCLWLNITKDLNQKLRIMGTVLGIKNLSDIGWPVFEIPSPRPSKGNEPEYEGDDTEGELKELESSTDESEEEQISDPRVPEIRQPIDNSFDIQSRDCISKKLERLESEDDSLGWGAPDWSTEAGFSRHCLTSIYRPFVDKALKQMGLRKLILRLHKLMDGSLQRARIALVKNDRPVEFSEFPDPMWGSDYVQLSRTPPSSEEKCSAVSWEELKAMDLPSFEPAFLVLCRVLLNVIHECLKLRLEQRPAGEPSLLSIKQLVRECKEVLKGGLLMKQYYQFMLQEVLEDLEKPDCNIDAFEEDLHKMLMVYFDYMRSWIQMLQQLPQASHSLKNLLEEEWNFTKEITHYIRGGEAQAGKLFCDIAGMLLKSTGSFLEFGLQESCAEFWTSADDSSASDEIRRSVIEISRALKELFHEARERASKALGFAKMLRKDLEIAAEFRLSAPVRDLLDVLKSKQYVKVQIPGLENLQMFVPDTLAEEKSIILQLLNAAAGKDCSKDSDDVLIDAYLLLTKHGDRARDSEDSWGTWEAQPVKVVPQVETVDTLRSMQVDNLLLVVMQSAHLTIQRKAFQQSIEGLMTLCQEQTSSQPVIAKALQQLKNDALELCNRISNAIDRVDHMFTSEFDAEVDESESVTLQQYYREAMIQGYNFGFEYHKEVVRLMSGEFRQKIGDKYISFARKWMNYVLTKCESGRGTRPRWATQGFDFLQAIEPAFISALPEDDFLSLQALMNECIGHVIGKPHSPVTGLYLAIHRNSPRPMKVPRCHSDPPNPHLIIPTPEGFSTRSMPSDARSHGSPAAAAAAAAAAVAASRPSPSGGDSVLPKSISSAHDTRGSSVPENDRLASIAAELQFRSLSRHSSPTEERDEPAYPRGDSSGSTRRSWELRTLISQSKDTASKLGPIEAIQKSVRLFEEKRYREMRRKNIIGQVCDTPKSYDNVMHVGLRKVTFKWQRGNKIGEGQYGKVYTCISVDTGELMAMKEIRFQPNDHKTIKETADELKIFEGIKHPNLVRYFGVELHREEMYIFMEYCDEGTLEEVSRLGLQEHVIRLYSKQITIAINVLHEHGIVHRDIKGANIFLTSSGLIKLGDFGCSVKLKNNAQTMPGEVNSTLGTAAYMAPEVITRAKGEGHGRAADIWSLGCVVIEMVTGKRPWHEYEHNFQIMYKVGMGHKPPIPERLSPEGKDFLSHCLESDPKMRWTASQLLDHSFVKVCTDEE
Procedure: as §1, §2

[3] = molecular target: T3, SLK (CTCL tumor antigen se20-9) (Homo sapiens, UniProt Q9H2G2); conditions: site Lys2; ATP 1 mM; Ketanserin, Ritanserin 100 μM; RF001 1 mM
T3 construct: Native kinases; endogenous in cells; host or cells: HEK293T soluble proteome
T3 sequence (Q9H2G2 whole entry): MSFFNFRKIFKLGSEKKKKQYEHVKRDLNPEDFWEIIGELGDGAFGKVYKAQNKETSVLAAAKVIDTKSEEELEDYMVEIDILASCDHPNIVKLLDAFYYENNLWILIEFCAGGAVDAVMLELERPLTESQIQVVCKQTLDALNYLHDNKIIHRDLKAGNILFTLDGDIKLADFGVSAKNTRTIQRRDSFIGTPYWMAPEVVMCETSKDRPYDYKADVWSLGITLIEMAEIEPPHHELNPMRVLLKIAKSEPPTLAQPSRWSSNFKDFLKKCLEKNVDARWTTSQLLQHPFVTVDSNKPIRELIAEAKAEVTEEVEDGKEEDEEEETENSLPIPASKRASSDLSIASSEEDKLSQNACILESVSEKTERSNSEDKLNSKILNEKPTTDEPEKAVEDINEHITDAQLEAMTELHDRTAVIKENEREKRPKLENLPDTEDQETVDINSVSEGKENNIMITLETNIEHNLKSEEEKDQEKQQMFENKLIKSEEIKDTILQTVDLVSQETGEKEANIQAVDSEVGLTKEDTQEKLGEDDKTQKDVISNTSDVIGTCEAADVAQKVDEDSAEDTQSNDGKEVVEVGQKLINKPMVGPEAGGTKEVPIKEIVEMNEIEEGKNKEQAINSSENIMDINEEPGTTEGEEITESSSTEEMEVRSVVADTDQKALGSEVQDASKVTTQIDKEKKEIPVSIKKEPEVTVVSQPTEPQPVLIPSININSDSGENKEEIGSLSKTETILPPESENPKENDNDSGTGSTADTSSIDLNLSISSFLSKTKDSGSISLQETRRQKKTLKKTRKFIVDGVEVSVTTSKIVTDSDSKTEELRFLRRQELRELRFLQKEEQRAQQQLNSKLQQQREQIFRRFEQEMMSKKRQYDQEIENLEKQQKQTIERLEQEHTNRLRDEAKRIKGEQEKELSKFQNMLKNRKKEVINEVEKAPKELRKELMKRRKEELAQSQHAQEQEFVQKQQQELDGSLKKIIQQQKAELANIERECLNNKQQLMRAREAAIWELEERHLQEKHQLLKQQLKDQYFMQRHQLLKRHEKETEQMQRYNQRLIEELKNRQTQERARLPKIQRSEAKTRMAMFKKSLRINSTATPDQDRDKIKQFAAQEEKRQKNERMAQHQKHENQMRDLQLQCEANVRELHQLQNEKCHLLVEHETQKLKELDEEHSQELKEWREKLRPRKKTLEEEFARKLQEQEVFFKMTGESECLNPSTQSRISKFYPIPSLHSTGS
Procedure: as §1, §2

| SILAC ratio, LATS1 probe-modified peptide [1] | SILAC ratio, M3K4 probe-modified peptide [2] | SILAC ratio, SLK probe-modified peptide [3] | SMILES |
| --- | --- | --- | --- |
| 1.2 | 1.2 | 1.3 | O=C(c1ccc(F)cc1)C1CCN(CCn2c(=O)[nH]c3ccccc3c2=O)CC1 [Ketanserin] |
| 1.4 | 0.8 | 1.5 | Fc1ccc(C(=C2CCNCC2)c2ccc(F)cc2)cc1 [RF001, 4-(Bis(4-fluorophenyl)methylene) piperidine] |

| SMILES | SILAC ratio, LATS1 probe-modified peptide [1] | SILAC ratio, M3K4 probe-modified peptide [2] | SILAC ratio, SLK probe-modified peptide [3] |
| --- | --- | --- | --- |
| Cc1nc2sccn2c(=O)c1CCN1CCC(=C(c2ccc(F)cc2)c2ccc(F)cc2)CC1 [Ritanserin] | 1.8 | 1.9 | 3.0 |
